Measured values: patent publication US12227494B2, “Polymorphisms of HM30181 mesylate” (ATHENEX R&D, LLC, priority 2020, dated 2025)
Entries after “also recorded” stand apart in the source; their conditions may differ.

Tests used:
[1] = XRPD of polymorphs after air-drying or vacuum-drying (solid form stability); format: physicochemical; conditions: for Crystallinity / XRPD pattern after vacuum-drying: vacuum dried overnight (80° C.); for Crystallinity / XRPD pattern after air-drying: air-dried (overnight)
Experimental: Large scale studies were performed with HM30181 mesylate Type A starting material on a 200 mg scale as described below. Solids were isolated by vacuum filtration. The wet cakes from filtration from DMA, DMF, and NMP slurries were washed with 1 mL to 2 mL methanol to remove solvents. […]
XRPD was performed using a Panalytical X'Pert3™ Powder XRPD and on a Si zero-background holder. The 2θ position was calibrated against a Panalytical™ 640 Si powder standard. Details of XRPD used in the experiments are listed below in Table 20.

[2] = 1H-NMR check for disproportionation or degradation; format: physicochemical; conditions: large scale polymorph samples, DMSO-d6
Text: At large scale, a slurry of HM30181 mesylate Type A starting material in methanol at ambient conditions generated a mixture of HM30181 mesylate Type B and HM30181 mesylate Type A after 9 days (see FIG. 32). After 14 days, the slurry in methanol generated a HM30181 mesylate Type N polymorph. […] A scaled-up slurry of HM30181 mesylate Type A starting material in DMA yielded HM30181 mesylate Type E after 6 days (see FIG. 35). […] A scaled-up slurry of HM30181 mesylate Type A starting material in DMF at 50° C. yielded HM30181 mesylate Type F rather than the expected HM30181 mesylate Type G after 9 days (see FIG. 36). […] This slurry was heated in an attempt to generate HM30181 mesylate Type G. A scaled-up slurry of HM30181 mesylate Type A starting material in DMF at 100° C. yielded HM30181 mesylate Type F after 2 days (see FIG. 37). A scaled-up slurry of HM30181 mesylate Type A starting material in DMF at 150° C. yielded a previously unobserved XRPD pattern after 5 days (see FIG. 37).
By 1H-NMR, HM30181 mesylate Type E contained DMA, HM30181 mesylate Type F contains DMF, and HM30181 mesylate Type N contains MeOH.
Proton NMR were obtained using a Varian 200M™ NMR in deuterated DMSO (DMSO-d6).

SMILES	Crystallinity / XRPD pattern after vacuum-drying [1]	Disproportionation or degradation by 1H-NMR [2]	Crystallinity / XRPD pattern after air-drying [1]	Crystallinity / XRPD pattern after air-drying ([1]; listed as Type I)
COc1cc2c(cc1OC)CN(CCc1ccc(-n3nnc(-c4cc(OC)c(OC)cc4NC(=O)c4cc(=O)c5ccccc5o4)n3)cc1)CC2.CS(=O)(=O)O [HM30181 mesylate Type E, HM30181 mesylate]	no loss of crystallinity; also recorded: No change in crystalline pattern	no disproportionation or degradation was detected		
COc1cc2c(cc1OC)CN(CCc1ccc(-n3nnc(-c4cc(OC)c(OC)cc4NC(=O)c4cc(=O)c5ccccc5o4)n3)cc1)CC2.CS(=O)(=O)O [HM30181 mesylate Type C, HM30181 mesylate]	no loss of crystallinity was detected; also recorded: No change in crystalline pattern	no disproportionation or degradation was detected	no significant change	
COc1cc2c(cc1OC)CN(CCc1ccc(-n3nnc(-c4cc(OC)c(OC)cc4NC(=O)c4cc(=O)c5ccccc5o4)n3)cc1)CC2.CS(=O)(=O)O [HM30181 mesylate Type G, HM30181 mesylate]			No reduction in crystallinity	
COc1cc2c(cc1OC)CN(CCc1ccc(-n3nnc(-c4cc(OC)c(OC)cc4NC(=O)c4cc(=O)c5ccccc5o4)n3)cc1)CC2.CS(=O)(=O)O [HM30181 mesylate Type N, HM30181 mesylate]	some loss of crystallinity	no disproportionation or degradation was detected		
COc1cc2c(cc1OC)CN(CCc1ccc(-n3nnc(-c4cc(OC)c(OC)cc4NC(=O)c4cc(=O)c5ccccc5o4)n3)cc1)CC2.CS(=O)(=O)O [HM30181 mesylate Type D, HM30181 mesylate]			Some loss of crystallinity; also recorded: No change in crystalline pattern	
COc1cc2c(cc1OC)CN(CCc1ccc(-n3nnc(-c4cc(OC)c(OC)cc4NC(=O)c4cc(=O)c5ccccc5o4)n3)cc1)CC2.CS(=O)(=O)O [HM30181 mesylate Type F, HM30181 mesylate]	Some change of pattern; also recorded: significant reduction in crystallinity	no disproportionation or degradation was detected		
COc1cc2c(cc1OC)CN(CCc1ccc(-n3nnc(-c4cc(OC)c(OC)cc4NC(=O)c4cc(=O)c5ccccc5o4)n3)cc1)CC2.CS(=O)(=O)O [HM30181 mesylate Type I, HM30181 mesylate]			yielded HM30181 mesylate Type J	Type J on air-drying
